Assay results from US20230002408A1, “HETEROARYLDIHYDROPYRIMIDINE DERIVATIVES AND METHODS OF TREATING HEPATITIS B INFECTIONS” (JANSSEN PHARMACEUTICA NV, priority 2019, published 2023).
Where two headings read alike, the source gives them in different places.

Key:
HBV = experiment: Anti-viral assay in HepG2.2.15 cells: HBV DNA in culture medium by qPCR; type: cell-based; settings: Hepatitis B virus, HepG2.2.15, 144 h
Experimental: (§1) HepG2.2.15 (the HepG2.2.15 cell line can be produced by transfection of the HepG2 cell line as described in Sells, Chen, and Acs 1987 (Proc. Natl. Acad. Sci. USA 84: 1005-1009), and the HepG2 cell line is available from ATCC® under number HB-8065™).
(§2) HepG2.2.15 cells were plated into 96-well plate in 2% FBS culture medium at the density of 40,000 cells/well and 5,000 cells/well for HBV inhibitory activity and cytotoxicity determination, respectively. After incubation at 37° C., 5% CO2 overnight, cells were treated with medium containing compounds for 6 days with medium and compounds refreshed after 3 days of treatment. Each compound was tested in a 1:3 serial dilutions at 8 different concentrations in triplicate. The highest concentration of the compounds was 10 uM or 1 uM for anti-HBV activity assay and 100 uM for cytotoxicity determination. Cell viability was determined by CCK-8 assay. After 6 days of compounds treatment, 20 μl CCK-8 reagents were added to each well of cytotoxicity assay plates. Cell plates were incubated at 37° C., 5% CO2 for 2.5 h. The absorbance at 450 nm wavelength and the absorbance at 630 nm wavelength as reference was measured.
The change of HBV DNA level induced by the compounds was assessed by quantitative real-time polymerase chain reaction (qPCR). Briefly, the HBV DNA in the culture medium was extracted using QlAamp 96 DNA Blood Kit according to the manual and then quantified by real-time PCR assay using the primers and probe in the table 1 below.
(§3) EC50 and CC50 values are calculated by the GRAPHPAD PRISM software.

[1] = Cytotoxicity determination in HepG2.2.15 cells (CCK-8 cell viability); type: cell-based; settings: human, 6 days treatment, CCK-8, highest concentration 100 uM
Experimental: as §1, §2, §3

[2] = HepG2.2.15 cells, 6 days treatment, HBV DNA in culture medium by real-time PCR, read-out: EC50

Compound	EC50 (HBV; [2])	CC50 at 6 days [1]	EC50 (HBV)
COC(=O)C1=C(CN2CCO[C@H]3CN(CC(C)(C)C(=O)O)C(=O)[C@H]32)NC(c2nccs2)=N[C@H]1c1cccc(F)c1C (single isomer, unassigned) [Compound I-19A, 3-((4aS*,7aS*)-4-4(S*)-6-(3-fluoro-2-methylphenyl)-5-(methoxycarbonyl)-2-(thiazol-2-yl)-3,6-dihydropyrimidin-4-yl)methyl)-5-oxohexahydropyrrolo[3,4-b][1,4]oxazin-6(2H)-yl)-2,2-dimethylpropanoic acid]	28 nM	59100 nM	–
CCOC(=O)C1=C(CN2CCO[C@H]3CCN(CC(C)(C)C(=O)O)C[C@H]32)NC(c2nccs2)=N[C@H]1c1cccc(F)c1C (single isomer, unassigned) [Compound I-10A, 3-((4aR*,8aS*)-4-(((S)-5-(Ethoxycarbonyl)-6-(3-fluoro-2-methylphenyl)-2-(thiazol-2-yl)-3,6-dihydropyrimidin-4-yl)methyl)hexahydro-2H-pyrido[4,3-b][1,4]oxazin-6(7H)-yl)-2,2-dimethylpropanoic acid]	28 nM	94500 nM	–
COC(=O)C1=C(CN2CCO[C@@H]3CN(C(=O)OC(C)(C)C)C[C@@H]32)NC(c2ncc(F)cc2F)=N[C@@H]1c1ccc(F)cc1Cl (single isomer, unassigned) [Reference 1H, (4aS*,7aR*)-tert-butyl 4-(((S*)-6-(2-chloro-4-fluorophenyl)-2-(3,5-difluoropyridin-2-yl)-5-(methoxycarbonyl)-3,6-dihydropyrimidin-4-yl)methyl)hexahydropyrrolo[3,4-b][1,4]oxazine-6(2H)-carboxylate, reference compound]	> 1000 nM	8700 nM	–
CCOC(=O)C1=C(CN2CCO[C@@H]3CN(C4CCC(C(=O)O)C4)C[C@@H]32)NC(c2nccs2)=N[C@H]1c1cccc(F)c1C (stereo partly shown) [Compound I-5]	–	40600 nM	86 nM
COC(=O)C1=C(CN2CCO[C@H]3CN(CC(C)(C)C(=O)O)C[C@H]32)NC(c2nccs2)=N[C@H]1c1cccc(F)c1C (single isomer, unassigned) [Compound I-14A, 3-((4aR*,7aS*)-4-0(S*)-6-(3-fluoro-2-methylphenyl)-5-(methoxycarbonyl)-2-(thiazol-2-yl)-3,6-dihydropyrimidin-4-yl)methyl)hexahydropyrrolo[3,4-b][1,4]oxazin-6(2H)-yl)-2,2-dimethylpropanoic acid]	33 nM	> 100000 nM	–
COC(=O)C1=C(CN2CCO[C@H]3CN(C(=O)OC(C)(C)C)C[C@H]32)NC(c2ncc(F)cc2F)=N[C@H]1c1ccc(F)cc1Cl (single isomer, unassigned) [Reference 1E, tert-butyl (4aR*,7aS*)-4-4(R*)-6-(2-chloro-4-fluorophenyl)-2-(3,5-difluoropyridin-2-yl)-5-(methoxycarbonyl)-3,6-dihydropyrimidin-4-yl)methyl)hexahydropyrrolo[3,4-b][1,4]oxazine-6(2H)-carboxylate, reference compound]	> 1000 nM	11700 nM	–
CCOC(=O)C1=C(CN2CCO[C@@H]3CN(C(C)=O)C[C@@H]32)NC(c2nccs2)=N[C@H]1c1cccc(F)c1C (racemic) [Compound I-4E, (S)-ethyl 6-(((cis)-6-acetylhexahydropyrrolo[3,4-b][1,4]oxazin-4(4aH)-yl)methyl)-4-(3-fluoro-2-methylphenyl)-2-(thiazol-2-yl)-1,4-dihydropyrimidine-5-carboxylate]	–	48300 nM	7.1 nM
COC(=O)C1=C(CN2CCO[C@H]3CN(CC(C)(C)C(=O)O)C(=O)[C@H]32)NC(c2nccs2)=N[C@H]1c1cccc(F)c1Cl (single isomer, unassigned) [Compound I-21A, 3-((4aS*,7aS*)-4-4(R*)-6-(2-chloro-3-fluorophenyl)-5-(methoxycarbonyl)-2-(thiazol-2-yl)-3,6-dihydropyrimidin-4-yl)methyl)-5-oxohexahydropyrrolo[3,4-b][1,4]oxazin-6(2H)-yl)-2,2-dimethylpropanoic acid]	8 nM	> 100000 nM	–
COC(=O)C1=C(CN2CCO[C@@H]3CN(C(=O)OC(C)(C)C)C[C@@H]32)NC(c2ncc(F)cc2F)=N[C@H]1c1ccc(F)cc1Cl (single isomer, unassigned) [Reference 1G, (4aS*,7aR*)-tert-butyl 4-(((R*)-6-(2-chloro-4-fluorophenyl)-2-(3,5-difluoropyridin-2-yl)-5-(methoxycarbonyl)-3,6-dihydropyrimidin-4-yl)methyl)hexahydropyrrolo[3,4-b][1,4]oxazine-6(2H)-carboxylate, reference compound]	> 1000 nM	14500 nM	–
COC(=O)C1=C(CN2CCO[C@H]3CN(C(=O)OC(C)(C)C)C[C@@H]32)NC(c2ncc(F)cc2F)=N[C@H]1c1ccc(F)cc1Cl (single isomer, unassigned) [Reference 1B, (4aS*,7aS*)-tert-butyl 4-(((R*)-6-(2-chloro-4-fluorophenyl)-2-(3,5-difluoropyridin-2-yl)-5-(methoxycarbonyl)-3,6-dihydropyrimidin-4-yl)methyl)hexahydropyrrolo[3,4-b][1,4]oxazine-6(2H)-carboxylate, reference compound]	> 1000 nM	2500 nM	–
CCOC(=O)C1=C(CN2CCO[C@H]3CN(CC(C)(C)C(=O)O)C(=O)[C@H]32)NC(c2nccs2)=N[C@H]1c1ccc(F)c(F)c1Cl (single isomer, unassigned) [Compound I-23A, 3-((4aS*,7aS*)-4-4(R*)-6-(2-chloro-3,4-difluorophenyl)-5-(ethoxycarbonyl)-2-(thiazol-2-yl)-3,6-dihydropyrimidin-4-yl)methyl)-5-oxohexahydropyrrolo[3,4-b][1,4]oxazin-6(2H)-yl)-2,2-dimethylpropanoic acid]	0.5 nM	45000 nM	–
CCOC(=O)C1=C(CN2CCO[C@H]3CN(C(=O)CC(C)(C)C(=O)O)C[C@H]32)NC(c2nccs2)=N[C@H]1c1cccc(F)c1C (relative stereo) [Compound I-2A, 4-((4aR*,7aS*)-4-4(S)-5-(ethoxycarbonyl)-6-(3-fluoro-2-methylphenyl)-2-(thiazol-2-yl)-3,6-dihydropyrimidin-4-yl)methyl)hexahydropyrrolo[3,4-b][1,4]oxazin-6(2H)-yl)-2,2-dimethyl-4-oxobutanoic acid]	–	74000 nM	33 nM
CCOC(=O)C1=C(CN2CCO[C@@H]3CN(S(=O)(=O)C4CC(C)(C(=O)O)C4)C[C@@H]32)NC(c2nccs2)=N[C@H]1c1cccc(F)c1C (relative stereo) [Compound I-9F, (4aS*,7aR*)—(S)-3-((4-((5-(Ethoxycarbonyl)-6-(3-fluoro-2-methylphenyl)-2-(thiazol-2-yl)-3,6-dihydropyrimidin-4-yl)methyphexahydropyrrolo[3,4-b][1,4]oxazin-6(2H)-yl)sulfonyl)-1-methylcyclobutanecarboxylic acid]	110 nM	82600 nM	–
CCOC(=O)C1=C(CN2CCO[C@H]3CN(CC(C)(C)C(=O)O)C[C@H]32)NC(c2nccs2)=N[C@H]1c1cccc(F)c1Cl (single isomer, unassigned) [Compound I-13A, 3-((4aR*,7aS*)-4-0(R*)-6-(2-Chloro-3-fluorophenyl)-5-(ethoxycarbonyl)-2-(thiazol-2-yl)-3,6-dihydropyrimidin-4-yl)methyl)hexahydropyrrolo[3,4-b][1,4]oxazin-6(2H)-yl)-2,2-dimethylpropanoic acid]	13 nM	67100 nM	–
CCOC(=O)C1=C(CN2CCO[C@@H]3CN(c4ncc(C(=O)O)s4)C[C@@H]32)NC(c2nccs2)=N[C@H]1c1cccc(F)c1C (racemic) [Compound I-8F, 2-((cis)-4-(((S)-5-(Ethoxycarbonyl)-6-(3-fluoro-2-methylphenyl)-2-(thiazol-2-yl)-3,6-dihydropyrimidin-4-yl)methyl)hexahydropyrrolo[3,4-b][1,4]oxazin-6(2H)-yl)thiazole-5-carboxylic acid]	–	37600 nM	45 nM
CCOC(=O)C1=C(CN2CCO[C@H]3CN(CC(C)(C)C(=O)O)C[C@H]32)NC(c2nccs2)=N[C@H]1c1cccc(F)c1C (relative stereo) [Compound I-6A, 3-((4aR*,7aS*)-4-4(S)-5-(Ethoxycarbonyl)-6-(3-fluoro-2-methylphenyl)-2-(thiazol-2-yl)-3,6-dihydropyrimidin-4-yl)methyphexahydropyrrolo[3,4-b][1,4]oxazin-6(2H)-yl)-2,2-dimethylpropanoic acid]	18 nM	82400 nM	–
CCOC(=O)C1=C(CN2CCO[C@H]3CN(CC(C)(C)C(=O)O)C(=O)[C@H]32)NC(c2nccs2)=N[C@H]1c1cccc(F)c1Cl (single isomer, unassigned) [Compound I-18A, 3-((4aS*,7aS*)-4-4(R*)-6-(2-chloro-3-fluorophenyl)-5-(ethoxycarbonyl)-2-(thiazol-2-yl)-3,6-dihydropyrimidin-4-yl)methyl)-5-oxohexahydropyrrolo[3,4-b][1,4]oxazin-6(2H)-yl)-2,2-dimethylpropanoic acid]	7 nM	62400 nM	–
